Laboratory results from US20100267774A1, “P38 MAP KINASE INHIBITORS” (CHROMA THERAPEUTICS LTD., priority 2007, published 2010).
Read-outs that look alike come from different tables or passages of the source.

Key:
[1] = system: phosphorylation of MAPKAP-2 in U937 cells; experiment: Cellular assay for the phosphorylation of MAPKAP-2 by p38 in U937 cells; type: cell-based; conditions: Homo sapiens, U-937; macrophage cell line U937; anisomycin 10 μM; read-out: Inhibition of phosphorylation of MAPKAP-2 in U937 cells (IC50)
Description: U937 or HUT78 cells were plated in RPMI 1640, and were incubated at 37° C., 5% CO2 for 18 hours. 10 mM stocks of compounds were diluted media/0.1% DMSO to give a log or semi-log dilution series. The wells for ‘no treatment’ and ‘anisomycin’ were treated with 0.1% DMSO only. The cells were incubated at 37° C., 5% CO2 for a further 4 hours. Anisomycin was added to all wells except ‘no treatment’ at a final concentration of 10 μM. The cells were incubated at 37° C., 5% CO2 for 30 minutes before harvest. Plates were stood on ice whilst harvesting, and all the following steps were carried out at 4° C. The cells were pelleted at 1000 rpm for 10 minutes at 4° C., the media aspirated, and the pellet washed with cold PBS. The pellets were lysed in 120 μl of SDS lysis buffer (62.5 mM Tris, pH 6.8, 2% SDS, 10% glycerol, 50 mM DTT, with protease inhibitors and phosphatase inhibitors added according to the manufacturers' recommendations). […]
In cells, p38 activity leads to the phosphorylation of the protein MAPKAP-2 and thus one method to assess the inhibition of p38 inside cells is to look at the decrease in the levels of phosphorylated MAPKAP-2. Table 1 lists the IC50s as measured by the level of MAPKAP-2 phosphorylation in a macrophage cell line (U937) and non-macrophage cell line (HUT78). […]

[2] = system: phosphorylation of MAPKAP-2 in HUT 78 cells; experiment: Cellular assay for the phosphorylation of MAPKAP-2 by p38 in HUT 78 cells; type: cell-based; conditions: for IC50: Homo sapiens, HuT78, non-macrophage cell line HUT 78, anisomycin 10 μM, read-out: Inhibition of phosphorylation of MAPKAP-2 in HUT 78 cells (IC50); for Ratio IC50s in HUT 78 to U937 cells: macrophage selectivity
Description: U937 or HUT78 cells were plated in RPMI 1640, and were incubated at 37° C., 5% CO2 for 18 hours. 10 mM stocks of compounds were diluted media/0.1% DMSO to give a log or semi-log dilution series. The wells for ‘no treatment’ and ‘anisomycin’ were treated with 0.1% DMSO only. The cells were incubated at 37° C., 5% CO2 for a further 4 hours. Anisomycin was added to all wells except ‘no treatment’ at a final concentration of 10 μM. The cells were incubated at 37° C., 5% CO2 for 30 minutes before harvest. Plates were stood on ice whilst harvesting, and all the following steps were carried out at 4° C. The cells were pelleted at 1000 rpm for 10 minutes at 4° C., the media aspirated, and the pellet washed with cold PBS. The pellets were lysed in 120 μl of SDS lysis buffer (62.5 mM Tris, pH 6.8, 2% SDS, 10% glycerol, 50 mM DTT, with protease inhibitors and phosphatase inhibitors added according to the manufacturers' recommendations). After 30 minutes on ice, the samples were sonicated for 5 seconds before centrifugation at 13,000 rpm 4° C. for 10 minutes to remove cell debris. 10 μl of the resulting gel samples were loaded per lane on NOVEX 4-12% Bis-Tris MOPS gels. Membranes from western transfer of gels were blotted with anti-phospho MAPKAP-2, anti-phospho HSP27 and anti-GAPDH according to the manufacturers' instructions. Signal was visualised using HRP-linked anti-rabbit or anti-mouse antibodies, ECL reagent and ECL film. IC50 values for the various compounds were visualised from the resulting photographic images, using both band-shift and signal intensity.
In cells, p38 activity leads to the phosphorylation of the protein MAPKAP-2 and thus one method to assess the inhibition of p38 inside cells is to look at the decrease in the levels of phosphorylated MAPKAP-2. Table 1 lists the IC50s as measured by the level of MAPKAP-2 phosphorylation in a macrophage cell line (U937) and non-macrophage cell line (HUT78). […] In contrast, example 33 that has an esterase motif that would be expected to confer macrophage selectivity, has an activity in the macrophage cell line (U937) which is 100 fold greater than in the non-macrophage cell line (HUT 78).

p38 MAP Kinase a = molecular target: T1, p38 MAP Kinase a (Homo sapiens, UniProt Q16539); experiment: p38 MAP Kinase activity, radiometric filter-binding assay (Upstate); type: biochemical
T1 construct: purchased Upstate (Dundee UK)

THP-1 TNFα release = experiment: LPS-stimulation of THP-1 cells, TNF-α release by ELISA; type: cell-based; conditions: Homo sapiens, THP-1, 6 h; read-out: Inhibitor activity versus THP-1 TNFα release
Description: THP-1 cells were plated in 100 μl at a density of 4×10^4 cells/well in V-bottomed 96 well tissue culture treated plates and incubated at 37° C. in 5% CO2 for 16 hrs. 2 hrs after the addition of the inhibitor in 100 μl of tissue culture media, the cells were stimulated with LPS (E coli strain 005:B5, Sigma) at a final concentration of 1 μg/ml and incubated at 37° C. in 5% CO2 for 6 hrs. TNF-α levels were measured from cell-free supernatants by sandwich ELISA (R&D Systems #QTA00B).

[3] = compound as such (Example 33: Ester), read-out: Inhibition of P38α (IC50 nM)
[4] = IC50 range, read-out: Inhibitor activity versus p38 MAPKa

T1 sequence (Q16539 whole entry): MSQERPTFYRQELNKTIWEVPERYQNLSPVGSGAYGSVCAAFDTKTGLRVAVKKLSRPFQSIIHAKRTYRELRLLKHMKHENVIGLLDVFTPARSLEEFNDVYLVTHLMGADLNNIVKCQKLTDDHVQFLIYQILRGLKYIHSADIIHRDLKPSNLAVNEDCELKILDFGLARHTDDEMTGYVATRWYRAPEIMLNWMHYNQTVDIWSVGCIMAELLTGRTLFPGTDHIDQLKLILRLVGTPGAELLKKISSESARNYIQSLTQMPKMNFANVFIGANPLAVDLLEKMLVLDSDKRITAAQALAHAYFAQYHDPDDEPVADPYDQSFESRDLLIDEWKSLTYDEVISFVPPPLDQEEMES

Row | SMILES | IC50 (p38 MAP Kinase a; [3]) [nM] | IC50 (THP-1 TNFα release) [nM] | IC50 (p38 MAP Kinase a; Acid (carboxylic acid of the ester), read-out: Inhibition of P38α (IC50 nM)) [nM] | IC50 (p38 MAP Kinase a; [4]) [nM] | IC50 [1] [nM] | IC50 [2] [nM] | Ratio IC50s in HUT 78 to U937 cells ([2]; MAPKAP-2 phosphorylation) | activity in the macrophage cell line (U937) greater than in the non-macrophage cell line (HUT 78) ([2]; MAPKAP-2 phosphorylation) [fold]
1 | Nc1c(C(=O)c2ccc(F)cc2F)ccc(=O)n1-c1c(F)cccc1F [Compound I, reference compound] | 47 |  |  |  | 9 | 10 | 1.1 | 
2 | CC(C)C[C@H](NCCc1cc(F)c(-n2c(N)c(C(=O)c3ccc(F)cc3F)ccc2=O)c(F)c1)C(=O)OC1CCCC1 [Example 33, cyclopentyl N-(2-{4-[6-amino-5-(2,4-difluorobenzoyl)-2-oxopyridin-1(2H)-yl]-3,5-difluorophenyl}ethyl)-L-leucinate] | 100 | < 100 | 0.5 | 100 to 1000 | 0.7 | 73 | 112 | 100
3 | Nc1c(C(=O)c2ccc(F)cc2F)ccc(=O)n1-c1c(F)cc(CCN[C@H](C(=O)OC2CCCC2)c2ccc(O)cc2)cc1F [Example 44, Cyclopentyl (2S)-{[2-(4-{6-amino-5-[(2,4-difluorophenyl)carbonyl]-2-oxopyridin-1(2H)-yl}-3,5-difluorophenyl)ethyl]amino}(4-hydroxyphenyl)ethanoate] |  | < 100 |  | < 100 |  |  |  | 

More lines, main results first:

Row | IC50 (p38 MAP Kinase a; [3]) [nM] | IC50 (THP-1 TNFα release) [nM] | IC50 (p38 MAP Kinase a; Acid (carboxylic acid of the ester), read-out: Inhibition of P38α (IC50 nM)) [nM] | IC50 (p38 MAP Kinase a; [4]) [nM] | SMILES | IC50 [1] [nM] | IC50 [2] [nM] | Ratio IC50s in HUT 78 to U937 cells ([2]; MAPKAP-2 phosphorylation) | activity in the macrophage cell line (U937) greater than in the non-macrophage cell line (HUT 78) ([2]; MAPKAP-2 phosphorylation) [fold]
4 |  | < 100 |  | < 100 | C[C@@H](O)[C@H](NCCc1cc(F)c(-n2c(N)c(C(=O)c3ccc(F)cc3F)ccc2=O)c(F)c1)C(=O)OC1CCCC1 [Example 45, Cyclopentyl N-[2-(4-{6-amino-5-[(2,4-difluorophenyl)carbonyl]-2-oxopyridin-1(2H)-yl}-3,5-difluorophenyl)ethyl]-L-threoninate] |  |  |  | 
5 |  | < 100 |  | < 100 | COc1ccc([C@H](NCCc2cc(F)c(-n3c(N)c(C(=O)c4ccc(F)cc4F)ccc3=O)c(F)c2)C(=O)OC2CCCC2)cc1 [Example 46, Cyclopentyl (2S)-{[2-(4-{6-amino-5-[(2,4-difluorophenyl)carbonyl]-2-oxopyridin-1(2H)-yl}-3,5-difluorophenyl)ethyl]amino}(4-methoxyphenyl)ethanoate] |  |  |  | 
6 |  | < 100 |  | 100 to 1000 | CC(C)C[C@H](NCCc1ccc(-n2c(N)c(C(=O)c3ccc(F)cc3F)ccc2=O)s1)C(=O)OC1CCCC1 [Example 49, Cyclopentyl N-(2-{5-[6-amino-5-(2,4-difluorobenzoyl)-2-oxopyridin-1(2H)-yl]-2-thienyl}ethyl)-L-leucinate] |  |  |  | 
